Test results as given in US20260124184A1, “ONCE DAILY ALDOSTERONE SYNTHASE INHIBITOR (R)-(+)-5-(P-CYANOPHENYL)-5,6,7,8-TETRAHYDROIMIDAZO[L,5-A]PYRIDINE” (priority 2022, published 2026).
“Also recorded” adds a separate entry of the source. Where two headings read alike, the source gives them in different places.

Experiments:
[1] = tested on: patients with primary aldosteronism
Experimental: (§1) A double-blind, randomized, Phase 2 trial was conducted between November 2019 and June 2022 at 11 centres in Italy, Switzerland and the Netherlands (NCT04007406). […] Patients requiring fixed-dose antihypertensive therapy continued treatment throughout the study; steroid therapies, β-adrenergic and renin-angiotensin-aldosterone system blockers were not permitted. At 14-day intervals, office blood pressures were recorded and blood samples were taken for measurement of steroid and peptide hormones and electrolytes at a central laboratory.

[2] = tested on: patients with primary aldosteronism; remark: listed apart in the source
Experimental: as §1
Plasma aldosterone and plasma renin concentration were measured centrally under GCP regulations using the Liaison® chemiluminescent immunoassay kit supplied by DiaSorin S.p.A. Italy. The system used specific monoclonal antibodies to prevent cross reactions with other major potential reactants in the serum samples. The monoclonal antibodies directed against specific epitopes of the renin molecule allowed accurate and sensitive quantification. The assays were performed according to the instructions provided by the manufacturer. […] The analytical sensitivity was <0.97 ng/ml. […] The analytical sensitivity was <0.53 IU/mL.
For all efficacy endpoints, changes from baseline were calculated from linear models and accompanied by 95% confidence intervals and p values. Log-transformed values were used for changes in ARR. The full analysis set (FAS) and safety set were defined as all randomized patients who received at least one dose of study drug.

[3] = 4 mg once daily, n=10, Day 1 (baseline)
[4] = 4 mg once daily, n=10, Day 70 (after placebo withdrawal)
[5] = 8 mg once daily, n=12, Day 1 (baseline)
[6] = 8 mg once daily, n=12, Day 70 (after placebo withdrawal)
[7] = 12 mg once daily, n=13, Day 1 (baseline)
[8] = 12 mg once daily, n=13, Day 70 (so in the source)

Substance: (R)-(+)-5-(p-cyanophenyl)-5,6,7,8-tetrahydroimidazolium[1,5-a]pyridine dihydrogen phosphate [dexfadrostat phosphate]
- plasma potassium concentration, mean ([1]; baseline potassium ≥3.6 mmol/L, 8 mg QD, Day 70 (placebo withdrawal)): 3.9 mmol/L
- plasma potassium concentration, mean ([1]; baseline potassium ≥3.6 mmol/L, 12 mg QD, Day 1 (baseline)): 3.9 mmol/L
- plasma potassium concentration, mean ([1]; baseline potassium ≥3.6 mmol/L, 12 mg QD, Day 14): 4.0 mmol/L
- plasma potassium concentration, mean ([1]; baseline potassium ≥3.6 mmol/L, 12 mg QD, Day 28): 4.1 mmol/L
- plasma potassium concentration, mean ([1]; baseline potassium ≥3.6 mmol/L, 12 mg QD, Day 42): 4.0 mmol/L
- plasma potassium concentration, mean ([1]; baseline potassium ≥3.6 mmol/L, 12 mg QD, Day 56): 3.9 mmol/L
- plasma potassium concentration, mean ([1]; baseline potassium ≥3.6 mmol/L, 12 mg QD, Day 70 (placebo withdrawal)): 3.7 mmol/L
- plasma potassium concentration, mean ([1]; baseline ≤3.0 mmol/L despite potassium supplements, all doses QD, Day 1 (baseline)): 3.2 mmol/L
- plasma potassium concentration, mean ([1]; baseline ≤3.0 mmol/L despite potassium supplements, all doses QD, Day 14): 4.0 mmol/L
- plasma potassium concentration, mean ([1]; baseline ≤3.0 mmol/L despite potassium supplements, all doses QD, Day 28): 4.1 mmol/L
- plasma potassium concentration, mean ([1]; baseline ≤3.0 mmol/L despite potassium supplements, all doses QD, Day 42): 4.2 mmol/L
- plasma potassium concentration, mean ([1]; baseline ≤3.0 mmol/L despite potassium supplements, all doses QD, Day 56): 4.0 mmol/L
- plasma potassium concentration, mean ([1]; baseline ≤3.0 mmol/L despite potassium supplements, all doses QD, Day 70 (placebo withdrawal)): 3.8 mmol/L
- effect on plasma potassium concentration ([1]; each dose arm, sustained over active treatment period): rapid and significant (p<0.001) increase in plasma potassium concentrations
- plasma potassium concentration, mean ([1]; in presence of potassium supplements, all doses QD, Day 1 (baseline)): 3.3 mmol/L
- plasma potassium concentration, mean ([1]; in presence of potassium supplements, all doses QD, Day 14): 4.1 mmol/L
- plasma potassium concentration, mean ([1]; in presence of potassium supplements, all doses QD, Day 28): 4.0 mmol/L
- plasma potassium concentration, mean ([1]; in presence of potassium supplements, all doses QD, Day 42): 4.1 mmol/L
- plasma potassium concentration, mean ([1]; in presence of potassium supplements, all doses QD, Day 56): 4.1 mmol/L
- plasma potassium concentration, mean ([1]; in presence of potassium supplements, all doses QD, Day 70 (placebo withdrawal)): 3.8 mmol/L
- change in ARR from baseline to Day 56, mean ([2]; 4 mg once daily, n=10): −20.87 (ng/dL)/(mU/L)
- change in ARR from baseline to Day 56, median ([2]; 4 mg once daily, n=10): −14.98 (ng/dL)/(mU/L)
- ARR, mean [2, 3]: 24.56 (ng/dL)/(mU/L)
- ARR, median [2, 3]: 21.37 (ng/dL)/(mU/L)
- ARR, mean ([2]; 4 mg once daily, n=10, Day 14): 4.57 (ng/dL)/(mU/L)
- ARR, median ([2]; 4 mg once daily, n=10, Day 14): 3.76 (ng/dL)/(mU/L)
- ARR, mean ([2]; 4 mg once daily, n=10, Day 28): 2.57 (ng/dL)/(mU/L)
- ARR, median ([2]; 4 mg once daily, n=10, Day 28): 1.76 (ng/dL)/(mU/L)
- ARR, mean ([2]; 4 mg once daily, n=10, Day 42): 2.87 (ng/dL)/(mU/L)
- ARR, median ([2]; 4 mg once daily, n=10, Day 42): 2.07 (ng/dL)/(mU/L)
- ARR, mean ([2]; 4 mg once daily, n=10, Day 56): 3.70 (ng/dL)/(mU/L)
- ARR, median ([2]; 4 mg once daily, n=10, Day 56): 2.52 (ng/dL)/(mU/L)
- ARR, mean [2, 4]: 12.34 (ng/dL)/(mU/L)
- ARR, median [2, 4]: 11.47 (ng/dL)/(mU/L)
- change in ARR from baseline to Day 56, mean ([2]; 8 mg once daily, n=12): −10.61 (ng/dL)/(mU/L)
- change in ARR from baseline to Day 56, median ([2]; 8 mg once daily, n=12): −6.99 (ng/dL)/(mU/L)
- ARR, mean [2, 5]: 11.58 (ng/dL)/(mU/L)
- ARR, median [2, 5]: 7.18 (ng/dL)/(mU/L)
- ARR, mean ([2]; 8 mg once daily, n=12, Day 14): 0.8 (ng/dL)/(mU/L)
- ARR, median ([2]; 8 mg once daily, n=12, Day 14): 0.31 (ng/dL)/(mU/L)
- ARR, mean ([2]; 8 mg once daily, n=12, Day 28): 1.26 (ng/dL)/(mU/L)
- ARR, median ([2]; 8 mg once daily, n=12, Day 28): 0.4 (ng/dL)/(mU/L)
- ARR, mean ([2]; 8 mg once daily, n=12, Day 42): 0.74 (ng/dL)/(mU/L)
- ARR, median ([2]; 8 mg once daily, n=12, Day 42): 0.29 (ng/dL)/(mU/L)
- ARR, mean ([2]; 8 mg once daily, n=12, Day 56): 0.96 (ng/dL)/(mU/L)
- ARR, median ([2]; 8 mg once daily, n=12, Day 56): 0.27 (ng/dL)/(mU/L)
- ARR, mean [2, 6]: 4.19 (ng/dL)/(mU/L)
- ARR, median [2, 6]: 2.46 (ng/dL)/(mU/L)
- change in ARR from baseline to Day 56, mean ([2]; 12 mg once daily, n=13): −15.61 (ng/dL)/(mU/L)
- change in ARR from baseline to Day 56, median ([2]; 12 mg once daily, n=13): −13.97 (ng/dL)/(mU/L)
- ARR, mean [2, 7]: 17.75 (ng/dL)/(mU/L)
- ARR, median [2, 7]: 17.8 (ng/dL)/(mU/L)
- ARR, mean [2, 8]: 9.3 (ng/dL)/(mU/L)
- ARR, median [2, 8]: 13.72 (ng/dL)/(mU/L)
- ARR upon drug withdrawal ([2]; Day 70, after 14-day placebo withdrawal): ARR values returned towards baseline values
- change in ARR from baseline to Day 56, mean ([2]; all doses combined, n=35): −15.40 (ng/dL)/(mU/L)
- change in ARR from baseline to Day 56, median ([2]; all doses combined, n=35): −11.76 (ng/dL)/(mU/L)
- LSM change in lognormal values of ARR from baseline ([2]; all patients, Day 1 to Day 56, FIG. 2A, p<0.0001): −2.54 (95% CI −2.9 to −2.2)
- effect on ARR from baseline to day 56 ([2]; all three doses (4 mg, 8 mg, 12 mg)): significant reductions (p<0.0001) in ARR from baseline to day 56
- effect on ARR over time ([2]; all three doses, baseline to day 14, 28, 42 and 56): rapid and significant (p<0.0001) reductions in ARR; also recorded: rapid and significant reductions (p<0.0001) in ARR
